Data: US20230293560A1, “METHOD FOR MODULATING THE BLADDER MICROBIOME TO IMPROVE BLADDER HEALTH” (Kimberly-Clark Worldwide, Inc., priority 2020, published 2023)
Where “and” joins values, the source holds several entries; their conditions need not be identical. Identical values can stand only once.

Legend:
[1] = system: S. anginosus, KC18-1131-3B, Bladder (Sa-2); assay type: cell-based; settings: Table 6, prebiotic 2%, one line per replicate; for Sa-2 MRS Δ / Sa-2 TSA Δ: change vs start, background growth in CHL media subtracted; for Sa-2 MRS Δ: MRS agar; for Sa-2 MRS end / Sa-2 TSA end: competition Sa-2 vs Lc-3, 48 hours; for Sa-2 MRS end: anaerobic, enumerated on MRS agar; for Sa-2 TSA end: enumerated on TSA
Description: (§1) Further testing was conducted to put the prebiotic compounds in competition assay testing, as further described in the test methods section herein. In the competition assay testing, each competition involved testing a single prebiotic compound with the commensal bacteria species of L. crispatus, KC18-1173-1, Bladder (“Lc-3”—Table 2) against the pathogenic bacterial species of S. anginosus, KC18-1131-3B, Bladder (“Sa-2”—Table 2).
(§2) • 1. An in house bacterial agar was created based on MRS agar (Kaplan and Hutkins, 2000) where the glucose is substituted for the prebiotic to be tested (either dextran MW ˜6,000, alpha-cyclodextrin, glucomannan, or pectin), bromocresol purple was included as a pH indicator. • 2. Bacteria were enumerated on each agar and color changes were recorded. Method for Competition Assay (Modified from “In Vitro Evaluation of Nutrients that Selectively Confer a Competitive Advantage to Lactobacilli” Vongsa et al, Beneficial Microbes 2016) • 1. Create 2% w/v stock of prebiotic or positive control (glucose/dextrose) as described above. • 2. From a freezer stock subculture the bacteria twice into De Man, Rogosa and Sharpe (MRS) broth (BD Difco, Becton Dickinson, Franklin Lakes, NJ), 37° C., stationary, anaerobic, overnight. • 3. From the last subculture, plate onto an MRS agar plate for L. crispatus KC18-1173-1 or blood agar for S. anginosus KC18-1131-3B, grow 37° C., stationary, anaerobic, overnight. • 4. Create a bacterial suspension by using a sterile tipped swab to transfer colonies of bacteria into a PBS suspension blank to a 2 MacFarland for both species. • 5. Enumerate the starting culture. • 6. Add 9.8 mL of prebiotic media into a 15 mL conical tube. • 7. Add 100 μL of the diluted bacteria to the media, incubate at 37° C., anaerobic, 48 hours. • 8. Harvest 100 μL from the tube containing the prebiotic and plate onto MRS agar and tryptic soy agar (TSA). • 9. Enumerate the bacteria on the MRS agar (both the L. crispatus and the S. anginosus). Small colonies are counted as S. anginosus and large colonies are counted as L. crispatus. • 10. Enumerate the bacteria on the TSA plate. […] Growth of the bacteria in the negative control (CHL media without prebiotic) was subtracted from the growth in the presence of the prebiotic or formulation.

[2] = system: L. crispatus, KC18-1173-1, Bladder (Lc-3); experiment: Competition assay, L. crispatus recovered; assay type: cell-based, Lactobacillus crispatus; settings: Table 6, prebiotic 2%, one line per replicate; for Lc-3 MRS Δ: change vs start, background growth in CHL media subtracted, MRS agar; for Lc-3 MRS end: competition Sa-2 vs Lc-3, 48 hours, enumerated on MRS agar
Description: as §1, §2

[3] = system: ratio of L. crispatus/S. anginosus; experiment: Therapeutic effect protocol (competition assay); assay type: cell-based, Lactobacillus crispatus; Streptococcus anginosus; settings: Table 6; prebiotic 2%; Lc-3 vs Sa-2
Description: As used herein, the term “therapeutic effect” refers to the ability of the compositions and formulations of the present disclosure to stimulate the growth of L. crispatus relative S. anginosus measured according to the therapeutic effect protocol described below. The therapeutic effect can be expressed as a ratio of L. crispatus to S. anginosus and is desirably greater than about 100, more preferably greater than about 500 and more desirably greater than about 1,000.
as §1, §2
Colonies of L. crispatus and S. anginosus were tested against in the competition method assay test method as described above. The therapeutic effect was calculated by comparing the colony forming units recovered after the competition assay of both L. crispatus and S. anginosus and calculating the ratio of L. crispatus/S. anginosus. A larger number indicates an increase in L. crispatus and/or a decrease in S. anginosus and a smaller number indicates a decrease in L. crispatus and/or an increase in S. anginosus.

[4] = system: commensal and pathogenic bacterial species; experiment: Prebiotic screening, summary in words across species; assay type: cell-based; settings: commensal (L. crispatus, L. gasseri, L. jensenii) and pathogenic (S. anginosus, E. faecalis) species
Description: Most of the prebiotic compounds were initially tested in a high throughput assay screening process, described further in the Test Methods section herein, but three prebiotics (as noted in Table 3) were tested using a plate assay screening process as described in the Test Methods section herein. The prebiotics were tested against the commensal bacterial species of Lactobacillus crispatus, Lactobacillus gasseri, and Lactobacillus jensenii and against the pathogenic bacterial species of Streptococcus anginosus and Enterococcus faecalis as shown in Table 2. The bacterial species were taken from different sources, listed as culture collection, bladder, and vagina.
The results of the assay plate screening of the prebiotic compounds of Table 1 against the bacterial species of Table 2 is documented in Table 3 with the results being described by the following legend: • ++ if growth and fermentation was equal to or greater than the positive control • + if growth and fermentation was less than the positive control • […] if weak or no growth or fermentation • NT if not tested Some codes were not tested based on the use or non-use by the bacteria, as a way to efficiently move through the assay plate screening to the competition assay, described below.
• 1. Create a 2% w/v stock of prebiotic or positive control (glucose/dextrose) to be tested in API 50 CHL media (Biomerieux, Marcy-I'Étoile, France). API 50 CHL media contains minimal amounts of carbon for growth, and a bromocresol purple as a pH indicator of fermentation. Filter sterilize media with a […]. Store at 4-6° C. until use. • 2. Add 180 μL of media containing the prebiotic to a sterile, flat bottom 96-well microtiter plate (Corning, Corning, NY). • 3. From a freezer stock subculture the bacteria twice into De Man, Rogosa and Sharpe (MRS) broth (BD Difco, Becton Dickinson, Franklin Lakes, NJ), 37° C., stationary, anaerobic, overnight. • 4. From the last subculture, plate onto an MRS agar plate (Teknova, Hollister, CA) and grow 37° C., stationary, anaerobic, overnight. • 5. Create a bacterial suspension by using a sterile tipped swab to transfer colonies of bacteria into a PBS suspension blank to a 0.5 MacFarland (S. anginosus or E. faecalis) or a 1 MacFarland (Lactobacillus species) from the MRS agar plate. • 6. Enumerate the starting culture. • 7. Inoculate the media alone and media containing the prebiotic or positive control with 20 μL of the bacterial suspension. • 8. Place the plate into a spectrophotometer (Molecular Devices, San Jose, CA) and read the plate every 20 minutes for 24-48 hours. Read wavelengths (OD 430, OD 590, and OD 660). A color change to yellow caused by a drop in pH will be read by an increase in the OD430 value and a decrease in the OD590 value and is indicative of bacterial fermentation. An increase in OD660 values is indicative of an increase in turbidity and bacterial growth.
• 1. An in house bacterial agar was created based on MRS agar (Kaplan and Hutkins, 2000) where the glucose is substituted for the prebiotic to be tested (either dextran MW ˜6,000, alpha-cyclodextrin, glucomannan, or pectin), bromocresol purple was included as a pH indicator. • 2. Bacteria were enumerated on each agar and color changes were recorded. Method for Competition Assay (Modified from “In Vitro Evaluation of Nutrients that Selectively Confer a Competitive Advantage to Lactobacilli” Vongsa et al, Beneficial Microbes 2016) • 1. Create 2% w/v stock of prebiotic or positive control (glucose/dextrose) as described above. • 2. From a freezer stock subculture the bacteria twice into De Man, Rogosa and Sharpe (MRS) broth (BD Difco, Becton Dickinson, Franklin Lakes, NJ), 37° C., stationary, anaerobic, overnight. • 3. From the last subculture, plate onto an MRS agar plate for L. crispatus KC18-1173-1 or blood agar for S. anginosus KC18-1131-3B, grow 37° C., stationary, anaerobic, overnight. • 4. […]

O=C[C@@H](O)[C@H](O)[C@H](O)CO [D-Arabinose]
Sa-2 MRS Δ [1]: −0.27 Log CFU/mL and −0.47 Log CFU/mL
Sa-2 TSA Δ [1]: −0.46 Log CFU/mL and −0.32 Log CFU/mL
Sa-2 MRS end [1]: 6.43 Log CFU/mL and 6.38 Log CFU/mL
Sa-2 TSA end [1]: 6.39 Log CFU/mL and 6.81 Log CFU/mL
Lc-3 MRS Δ [2]: −0.13 Log CFU/mL and −0.23 Log CFU/mL
Lc-3 MRS end [2]: 5.00 Log CFU/mL and 5.85 Log CFU/mL
Therapeutic Effect (ratio of L. crispatus/S. anginosus) [3]: 4.07E−02 (2×) and 1.10E−01 (2×)
overall outcome of the screening of Table 3, in words [4]: not able to provide growth for most, if not all, commensal and pathogenic bacterial species

O=C(CO)[C@@H](O)[C@H](O)[C@H](O)CO[C@H]1O[C@H](CO)[C@@H](O)[C@H](O)[C@H]1O [Palatinose Hydrate, 6-O-α-D-Glucopyranosyl-D-fructose]
Sa-2 MRS Δ [1]: −1.69 Log CFU/mL and −1.90 Log CFU/mL and −1.82 Log CFU/mL
Sa-2 TSA Δ [1]: −2.39 Log CFU/mL and −2.07 Log CFU/mL and −0.79 Log CFU/mL and −2.32 Log CFU/mL
Sa-2 MRS end [1]: 5.16 Log CFU/mL and 4.47 Log CFU/mL and 4.88 Log CFU/mL
Sa-2 TSA end [1]: 4.74 Log CFU/mL and 4.56 Log CFU/mL and 5.73 Log CFU/mL and 4.53 Log CFU/mL
Lc-3 MRS Δ [2]: 2.93 Log CFU/mL and 2.26 Log CFU/mL and 3.24 Log CFU/mL and 1.90 Log CFU/mL
Lc-3 MRS end [2]: 7.97 Log CFU/mL and 8.00 Log CFU/mL and 8.37 Log CFU/mL and 7.98 Log CFU/mL
Therapeutic Effect (ratio of L. crispatus/S. anginosus) [3]: 1.74E+03 (2×) and 2.57E+03 (2×) and 3.29E+03 (2×) and 6.92E+03 (2×)

O=C(CO)[C@@H](O)[C@H](O)[C@H](O)CO[C@H]1O[C@H](CO)[C@@H](O)[C@H](O)[C@H]1O [Palatinose PST-PF]
Sa-2 MRS Δ [1]: −1.28 Log CFU/mL
Sa-2 TSA Δ [1]: −2.68 Log CFU/mL and −0.94 Log CFU/mL
Sa-2 MRS end [1]: 5.41 Log CFU/mL
Sa-2 TSA end [1]: 3.95 Log CFU/mL and 5.58 Log CFU/mL
Lc-3 MRS Δ [2]: 3.02 Log CFU/mL and 2.16 Log CFU/mL
Lc-3 MRS end [2]: 8.06 Log CFU/mL and 7.90 Log CFU/mL
Therapeutic Effect (ratio of L. crispatus/S. anginosus) [3]: 1.29E+04 (2×) and 1.41E+04 (2×)

OC[C@@H](O)[C@@H](O[C@H]1O[C@H](CO)[C@@H](O)[C@H](O)[C@H]1O)[C@H](O)[C@@H](O)CO [Maltitol]
Sa-2 MRS Δ [1]: −0.12 Log CFU/mL and −0.37 Log CFU/mL
Sa-2 TSA Δ [1]: 0.41 Log CFU/mL and 0.47 Log CFU/mL
Sa-2 MRS end [1]: 6.58 Log CFU/mL and 6.48 Log CFU/mL
Sa-2 TSA end [1]: 7.26 Log CFU/mL and 7.6 Log CFU/mL
Lc-3 MRS Δ [2]: 0.35 Log CFU/mL and −0.08 Log CFU/mL
Lc-3 MRS end [2]: 5.48 Log CFU/mL and 6.00 Log CFU/mL
Therapeutic Effect (ratio of L. crispatus/S. anginosus) [3]: 1.66E−02 (2×) and 2.51E−02 (2×)
overall outcome of the screening of Table 3, in words [4]: not able to provide growth for most, if not all, commensal and pathogenic bacterial species

O=C(CO)[C@@H](O)[C@H](O)[C@H](O)CO[C@H]1O[C@H](CO)[C@@H](O)[C@H](O)[C@H]1O [Palatinose PST-PA]
Sa-2 MRS Δ [1]: −1.63 Log CFU/mL
Sa-2 TSA Δ [1]: −0.56 Log CFU/mL and −1.23 Log CFU/mL
Sa-2 MRS end [1]: 5.06 Log CFU/mL
Sa-2 TSA end [1]: 6.07 Log CFU/mL and 5.29 Log CFU/mL
Lc-3 MRS Δ [2]: 3.25 Log CFU/mL and 1.94 Log CFU/mL
Lc-3 MRS end [2]: 8.29 Log CFU/mL and 7.68 Log CFU/mL
Therapeutic Effect (ratio of L. crispatus/S. anginosus) [3]: 1.66E+02 (2×) and 1.50E+02 (2×)

O=CC[C@H](O)[C@H](O)CO [2-Deoxy-D-Ribose]
Sa-2 MRS Δ [1]: −2.41 Log CFU/mL and −1.26 Log CFU/mL
Sa-2 TSA Δ [1]: −0.63 Log CFU/mL and −0.23 Log CFU/mL
Sa-2 MRS end [1]: 4.29 Log CFU/mL and 5.59 Log CFU/mL
Sa-2 TSA end [1]: 6.22 Log CFU/mL and 6.90 Log CFU/mL
Lc-3 MRS Δ [2]: −5.22 Log CFU/mL and −1.90 Log CFU/mL
Lc-3 MRS end [2]: 0 Log CFU/mL and 4.18 Log CFU/mL
Therapeutic Effect (ratio of L. crispatus/S. anginosus) [3]: 6.03E−07 (2×) and 1.91E−03 (2×)
overall outcome of the screening of Table 3, in words [4]: not able to provide growth for most, if not all, commensal and pathogenic bacterial species

O=C(CO)[C@@H](O)[C@H](O)[C@H](O)CO[C@H]1O[C@H](CO)[C@@H](O)[C@H](O)[C@H]1O [Palatinose PST-N]
Sa-2 MRS Δ [1]: −2.08 Log CFU/mL and −1.53 Log CFU/mL
Sa-2 TSA Δ [1]: −2.11 Log CFU/mL and −1.03 Log CFU/mL
Sa-2 MRS end [1]: 4.29 Log CFU/mL and 5.16 Log CFU/mL
Sa-2 TSA end [1]: 4.52 Log CFU/mL and 5.49 Log CFU/mL
Lc-3 MRS Δ [2]: 3.42 Log CFU/mL and 2.48 Log CFU/mL
Lc-3 MRS end [2]: 8.46 Log CFU/mL and 8.22 Log CFU/mL
Therapeutic Effect (ratio of L. crispatus/S. anginosus) [3]: 8.71E+03 (2×) and 5.80E+03 (2×)
